Reference: ChEMBL document CHEMBL4811234, “Dihydro-β-agarofuran-Type Sesquiterpenoids from the Seeds of Celastrus virens and Their Multidrug Resistance Reversal Activity against the KB/VCR Cell Line” (J Nat Prod, 2021)

How the values were obtained:
[1] = Cytotoxicity against human KB/VCR cells assessed as inhibition of cell proliferation at 2 uM measured after 72 hrs by CCK8 assay relative to control; type: cell-based
[2] = Cytotoxicity against human KB/VCR cells assessed as inhibition of cell proliferation at 20 uM measured after 72 hrs by CCK8 assay relative to control; type: cell-based

CC(=O)O[C@@H]1[C@@H]2[C@@H](OC(C)=O)[C@]3(OC2(C)C)[C@H](C)CC[C@H](OC(C)=O)[C@@]3(C)[C@@H]1OC(=O)c1ccccc1
inhibition at 72 h, 2 µM [1]: 1.6%
inhibition at 72 h, 20 µM [2]: 2.4%

CC(=O)O[C@@H]1[C@@H]2[C@@H](OC(C)=O)[C@]3(OC2(C)C)[C@H](C)C[C@H](OC(=O)/C=C/c2ccccc2)[C@H](OC(C)=O)[C@@]3(C)[C@@H]1OC(=O)c1ccccc1
inhibition at 72 h, 2 µM [1]: 0.7%
inhibition at 72 h, 20 µM [2]: -12.8%

CC(=O)O[C@H]1[C@@H]2[C@@H](OC(C)=O)[C@]3(OC2(C)C)[C@H](C)C[C@@H](OC(C)=O)[C@H](OC(C)=O)[C@@]3(C)[C@H]1OC(=O)c1ccccc1
inhibition at 72 h, 2 µM [1]: -1.2%
inhibition at 72 h, 20 µM [2]: -2%

CC(=O)O[C@@H]1[C@@H]2[C@@H](OC(C)=O)[C@]3(OC2(C)C)[C@H](C)C[C@@H](OC(C)=O)[C@H](OC(C)=O)[C@@]3(C)[C@@H]1OC(=O)c1ccccc1
inhibition at 72 h, 2 µM [1]: 2.7%
inhibition at 72 h, 20 µM [2]: -1.5%

COc1cc2c(cc1OC)CN(CCc1ccc(-n3nnc(-c4cc(OC)c(OC)cc4NC(=O)c4cc(=O)c5ccccc5o4)n3)cc1)CC2
inhibition at 72 h, 2 µM [1]: 23.1%

CC(=O)O[C@H]1CC[C@@H](C)[C@]23OC(C)(C)[C@H](C[C@H](OC(=O)c4ccccc4)[C@]12C)[C@H]3OC(C)=O
inhibition at 72 h, 2 µM [1]: -1.1%
inhibition at 72 h, 20 µM [2]: 0.7%

CC(=O)OC[C@]12[C@H](OC(C)=O)C(=O)[C@@H]3[C@@H](OC(C)=O)[C@]1(OC3(C)C)[C@H](C)[C@@H](O)[C@H](OC(C)=O)[C@@H]2OC(C)=O
inhibition at 72 h, 2 µM [1]: -5.3%
inhibition at 72 h, 20 µM [2]: 9.2%

CC(=O)OC[C@]12[C@H](OC(C)=O)C(=O)[C@@H]3[C@@H](OC(C)=O)[C@]1(OC3(C)C)[C@H](C)C[C@H](O)[C@@H]2OC(C)=O
inhibition at 72 h, 2 µM [1]: -2%
inhibition at 72 h, 20 µM [2]: 2.6%

CC(=O)O[C@H]1[C@@H]2[C@@H](OC(=O)/C=C/c3ccccc3)[C@]3(OC2(C)C)[C@H](C)C[C@H](O)[C@H](OC(C)=O)[C@@]3(C)[C@H]1OC(=O)c1ccccc1
inhibition at 72 h, 2 µM [1]: -20.3%
inhibition at 72 h, 20 µM [2]: 76.9%

CC(=O)OC[C@]12[C@H](OC(C)=O)C(=O)[C@@H]3[C@@H](O)[C@]1(OC3(C)C)[C@H](C)[C@@H](O)[C@H](OC(C)=O)[C@@H]2OC(C)=O
inhibition at 72 h, 2 µM [1]: -0.5%
inhibition at 72 h, 20 µM [2]: 1.5%

CC(=O)O[C@H]1C[C@@H](C)[C@]23OC(C)(C)[C@H](C[C@H](OC(=O)c4ccccc4)[C@@]2(C)[C@@H]1OC(C)=O)[C@H]3OC(=O)c1ccccc1
inhibition at 72 h, 2 µM [1]: 0%
inhibition at 72 h, 20 µM [2]: 57.9%

CC(=O)O[C@@H]1C[C@@H](C)[C@]23OC(C)(C)[C@H]([C@@H](O)[C@H](OC(=O)c4ccccc4)[C@@]2(C)[C@H]1OC(C)=O)[C@H]3OC(=O)/C=C/c1ccccc1
inhibition at 72 h, 2 µM [1]: 3.3%
inhibition at 72 h, 20 µM [2]: 78.7%

CC(=O)O[C@H]1[C@@H]2[C@@H](OC(=O)c3cccnc3)[C@]3(OC2(C)C)[C@H](C)C[C@H](OC(C)=O)[C@@H](OC(C)=O)[C@@]3(C)[C@H]1OC(=O)c1ccccc1
inhibition at 72 h, 2 µM [1]: -3%
inhibition at 72 h, 20 µM [2]: -6.7%

CC(=O)OC[C@]12[C@H](OC(C)=O)C(=O)[C@@H]3[C@@H](O)[C@]1(OC3(C)C)[C@H](C)[C@@H](OC(C)=O)[C@H](OC(C)=O)[C@@H]2OC(C)=O
inhibition at 72 h, 2 µM [1]: 1.6%
inhibition at 72 h, 20 µM [2]: 2.6%

CC(=O)O[C@@H]1[C@H]2[C@H](O)[C@H](OC(=O)c3ccccc3)[C@]3(C)[C@@H](OC(C)=O)[C@H](O)C[C@@H](C)[C@@]13OC2(C)C
inhibition at 72 h, 2 µM [1]: -1.9%
inhibition at 72 h, 20 µM [2]: -2.1%

CC(=O)O[C@@H]1C[C@@H](C)[C@]23OC(C)(C)[C@H](C[C@H](OC(=O)c4ccccc4)[C@]2(C)[C@H]1OC(C)=O)[C@H]3OC(=O)/C=C/c1ccccc1
inhibition at 72 h, 2 µM [1]: -5.3%
inhibition at 72 h, 20 µM [2]: 81.8%

CCCCCC(=O)O[C@@H]1[C@@H]2[C@@H](OC(C)=O)[C@]3(OC2(C)C)[C@H](C)C[C@@H](OC(C)=O)[C@H](OC(C)=O)[C@@]3(C)[C@H]1OC(=O)c1ccccc1
inhibition at 72 h, 2 µM [1]: -3.1%
inhibition at 72 h, 20 µM [2]: -1.9%

CC(=O)O[C@H]1[C@@H]2[C@@H](OC(=O)/C=C/c3ccccc3)[C@]3(OC2(C)C)[C@H](C)C[C@@H](OC(C)=O)[C@H](OC(C)=O)[C@@]3(C)[C@H]1OC(=O)c1ccccc1
inhibition at 72 h, 2 µM [1]: -0.6%
inhibition at 72 h, 20 µM [2]: -3%

CC(=O)O[C@H]1CC[C@@H](C)[C@]23OC(C)(C)[C@H](C[C@H](OC(=O)c4ccccc4)[C@]12C)[C@H]3OC(=O)c1ccccc1
inhibition at 72 h, 2 µM [1]: -1.8%
inhibition at 72 h, 20 µM [2]: 77.9%

CC(=O)O[C@@H]1[C@@H]2[C@@H](OC(C)=O)[C@]3(OC2(C)C)[C@H](C)CC[C@H](OC(C)=O)[C@@]3(C)[C@H]1OC(=O)c1ccccc1
inhibition at 72 h, 2 µM [1]: 2.4%
inhibition at 72 h, 20 µM [2]: 3.2%
